What was measured:
[1] = tested on: Male KKAy mice (model for type 2 diabetes); assay: Triglyceride content in the liver of KKAy mice (Triglyceride E Test Wako); assay type: in vivo; settings: n=6, subcutaneous 3 mg/5 mL/kg twice a day for 2 weeks, control group 61.7, healthy group 12.5, * P<0.05, ** P<0.01
Experimental: (§1) Male KKAy mice (11 to 12 weeks old) (each n=6) were used as a model for type 2 diabetes. 11% sulfobutyl ether-β-cyclodextrin was added to the compounds of Examples 1 and 59, and these products were administered subcutaneously in a dose of 3 mg/5 mL/kg, twice a day, continuously for 2 weeks. A group that was given just the vehicle was used as a control group, and male C57BL/6J mice (11 to 12 weeks old) (n=6) that had similarly been given the vehicle were used for a healthy group. The livers were collected, and a Triglyceride E Test Wako (Wako Pure Chemicals) was used to quantify the triglyceride content in the liver. […] Blood was also sampled from the orbital venous plexus, and the glucose level in the separated serum was quantified by enzyme method using a L-type Wako GLU2 (Wako Pure Chemicals).

[2] = tested on: Male KKAy mice (model for type 2 diabetes); assay: Serum glucose level in KKAy mice (enzyme method, L-type Wako GLU2); assay type: in vivo; settings: n=6, subcutaneous 3 mg/5 mL/kg twice a day for 2 weeks, serum from orbital venous plexus blood, control group 532, healthy group 211, ** P<0.01
Experimental: as §1

| Structure (SMILES) | Triglyceride content in liver [1] | Blood glucose level [2] |
| --- | --- | --- |
| CC(=O)c1cc2c(s1)-c1cc(C)cc(C)c1CC2 [Example 1, 2-acetyl-4,5-dihydro-6,8-dimethylnaphtho[1,2-b]thiophene] | 47.5* mg/g liver | 491 mg/dL |
| Cc1cc(C)c2c(c1)-c1sc(CCO)cc1CC2 [Example 59, 2-(2-hydroxyethyl)-4,5-dihydro-6,8-dimethylnaphtho[1,2-b]thiophene] | 34.8** mg/g liver | 269** mg/dL |

Source: patent publication US20060189678A1, “4,5-dihydronaphtho[1,2-b]thiophene derivative” (priority 2003, published 2006)
